Reference: patent US8383852B2, “Compounds having a cyclic moiety and compositions for delivering active agents” (Emisphere Technologies, Inc., priority 2007, dated 2013)

Tested on: male, Sprague-Dawley rats
Assay: Oral delivery of insulin in rats: change in whole blood glucose after insulin plus delivery agent
Format: in vivo, rat
Settings: oral gavage
Procedure: Human recombinant insulin (ICN Biomedicals, Aurora, Ohio) was dissolved in deionized water (ph ˜6.5) to obtain stock insulin solutions having a concentration of 15 mg/ml. 3-[4-(cyclopropylmethoxy)phenyl]propanoic acid (Emisphere Technologies, Tarrytown, N.Y.) was dissolved in deionized water to obtain a 200 mg/ml delivery agent solution. The free acid form of delivery agent as converted to the sodium salt by adding one equivalent of sodium hydroxide. Solutions were vortexted, sonicated, and heated. If necessary, additional sodium hydroxide was added in μl quantities to achieve uniform solubility in the delivery agent solutions. Solutions were adjusted to a pH of 3.5-8.5 by the addition of either hydrochloric acid or sodium hydroxide, as appropriate. The insulin stock solution was then added to the delivery agent solutions to obtain an administration solution ultimately having an insulin concentration of 0.5 mg/ml. After solubilization and drug addition, administration solutions were brought to a final volume by the addition of deionized water.
Insulin was administered to male, Sprague-Dawley rats either alone or in combination with delivery agent by oral gavage (PO). Typically, rats were fasted for 18-24 hours prior to dosing. A Rusch 8 French catheter was cut to 11 cm in length and adapted to fit a 1 ml syringe. The syringe was filled with dosing solution and the catheter was inserted into the rat mouth and fed down the esophagus (10.0 cm). The dosing solution was delivered by pressing the syringe plunger while holding the rat in an upright position. The doses of delivery agent and
[…] The dose volume was 1 ml/kg. The weight of the rats in this invention ranges from 250 to 300 grams. The rat was weighted prior to the test and the dose volume was adjusted accordingly.
Immediate to each blood sampling point, rats were exposed briefly (˜10 seconds) to carbon dioxide until prostrate. A 77-mm capillary tube was inserted into the retroorbital sinus. Typically, blood samples were collected prior to dosing (time=0) and at 15, 30, 45, and 60 minutes after dosing.
To determine the pharmacodynamic response, a hand-held glucometer (OneTouch Ultra, LifeScan—Johnson & Johnson, New Brunswick, N.J.) was used to measure whole blood glucose after administration of insulin or insulin and delivery agent. After discarding the first drop of blood, a small sample (˜5-10 μls) was touched to the glucometer test strip (OneTouch Ultra, LifeScan) and a blood glucose reading was generated by the meter. Typically, samples were collected prior to dosing (time 0) and at 15, 30, 45, and 60 minutes after dosing.

[1] = 15 min., insulin/delivery agent = 0.5 mg/200 mg per kg
[2] = 30 min., insulin/delivery agent = 0.5 mg/200 mg per kg
[3] = 45 min., insulin/delivery agent = 0.5 mg/200 mg per kg
[4] = 60 min., insulin/delivery agent = 0.5 mg/200 mg per kg
[5] = time 0, insulin/delivery agent = 0.5 mg/200 mg per kg

Compound	Percent change in whole blood glucose from baseline (negative = reduction) [1] [%]	Percent change in whole blood glucose from baseline (negative = reduction) [2] [%]	Percent change in whole blood glucose from baseline (negative = reduction) [3] [%]	Percent change in whole blood glucose from baseline (negative = reduction) [4] [%]	Percent change in whole blood glucose from baseline (negative = reduction) [5]
COc1cc(CC(=O)O)ccc1OCC1CCC1 [Compound 3, [4-(cyclobutylmethoxy)-3-methoxyphenyl]acetic acid]	−15.04	−22.90	−21.04	−19.74	6.88%
COc1cc(CC(=O)O)ccc1OCC1CC1 [Compound 8, [4-(cyclopropylmethoxy)-3-methoxyphenyl]acetic acid]	−1.61	−14.21	−16.12	−18.19	18.75%
O=C(O)c1ccccc1OCC1CC1 [Compound 9, 2-(cyclopropylmethoxy)benzoic acid]	−1.29	−6.99	−11.40	−11.75	−1.59%
O=C(O)Cc1ccc(OCC2CC2)cc1 [Compound 5, [4-(cyclopropylmethoxy)phenyl]acetic acid]	−17.53	−26.944	−22.92	−18.62	−1.91%
COc1cc(CC(=O)O)ccc1OC1CCCC1 [Compound 7, [4-(cyclopentyloxy)-3-methoxyphenyl]acetic acid]	−7.15	−17.37	−12.75	−12.77	11.87%
O=C(O)CCc1ccc(OCC2CC2)cc1 [Compound 1, 3-[4-(cyclopropylmethoxy)phenyl]propanoic acid]	−17.26	−38.35	−43.75	−42.48	−4.64%
O=C(O)c1ccccc1OCC1CCCCC1 [Compound 11, 2-(cyclohexylmethoxy)benzoic acid]	−4.82	−6.23	−19.71	−19.54	−1.27%
O=C(O)c1ccc(OCC2CC2)cc1 [Compound 4, 4-(cyclopropylmethoxy)benzoic acid]	−11.80	−32.15	−21.14	−16.78	1.72%
O=C(O)c1ccccc1OCC1CCC1 [Compound 6, 2-(cyclobutylmethoxy)benzoic acid]	−9.25	−20.51	−2.61	−2.75	6.37%
O=C(O)c1ccc(OCC2CCC2)cc1 [Compound 2, 4-(cyclobutylmethoxy)benzoic acid]	−20.04	−32.2	−32.51	−19.95	7.51%
O=C(O)c1ccccc1OC1CCCC1 [Compound 10, 2-(cyclopentyloxy)benzoic acid]	−6.94	−25.22	−29.27	−29.91	+16.39%
